{
  "source": "patent US12186306B2",
  "about": "“Methods of treatment for cystic fibrosis” (Vertex Pharmaceuticals Incorporated, priority 2020, dated 2025)",
  "key": {"[1]": {"test_system": "subjects with gating mutations", "assay": "Clinical trial: absolute change in SwCl at 12 weeks in subjects with gating mutations on stable ivacaftor treatment; safety and tolerability", "format": "in vivo, human", "conditions": "for Absolute change in SwCl at Week 12: LS mean (SE): subjects with gating mutations", "protocol": "In a clinical trial, a comparative study was conducted on absolute changes in SwCl at 12 weeks in subjects with gating mutations where were on stable treatment with ivacaftor."}, "[2]": {"assay": "Relative stability of solid (polymorphic) forms of Compound II", "format": "physicochemical"}, "[3]": {"assay": "Comparison of calcium salt hydrate forms: dissolution, solubility, exposure", "format": "physicochemical", "conditions": "than the other calcium salt hydrate forms"}},
  "note": "Where a name gives a salt, the structure may show the parent alone.",
  "data": [
    {"smiles": "CC(C)(C)c1cc(C(C)(C)C)c(NC(=O)c2c[nH]c3ccccc3c2=O)cc1O", "note": "[Ivacaftor, reference compound]", "values": [
      {"measurement": "Absolute change in SwCl at Week 12: LS mean (SE)", "setting": "[1]; 150 mg q12h, N = 11, week 12", "result": 0.9}
    ]},
    {"smiles": "CC1(C)C[C@@H]2CCCNc3cccc(n3)S(=O)(=O)NC(=O)c3ccc(-n4ccc(OCCC5C6(CC6)C56CC6)n4)nc3N1C2", "note": "[Compound II free Form A, (14S)-8-[3-(2-{Dispiro[2.0.2.1]heptan-7-yl}ethoxy)-1H-pyrazol-1-yl]-12,12-dimethyl-2λ6-thia-3,9,11,18,23-pentaazatetracyclo[17.3.1.111,14.05,10]tetracosa-1(22),5,7,9,19(23),20-hexaene-2,2,4-trione]", "values": [
      {"measurement": "Polymorphic form stability", "setting": "[2]; water activity ≤0.95 at ambient temperature", "result": "most stable polymorphic form"}
    ]},
    {"smiles": "[2H]C([2H])([2H])C(c1cc(C(C)(C)C)c(NC(=O)c2c[nH]c3ccccc3c2=O)cc1O)(C([2H])([2H])[2H])C([2H])([2H])[2H]", "note": "[Compound I, N-(2-(tert-butyl)-5-hydroxy-4-(2-(methyl-d3)propan-2-yl-1,1,1,3,3,3-d6)phenyl)-4-oxo-1,4-dihydroquinoline-3-carboxamide]", "values": [
      {"measurement": "Safety and tolerability", "setting": "[1]; 150 mg and 250 mg for 12 weeks", "result": "generally safe and well tolerated"},
      {"measurement": "SwCl compared to ivacaftor baseline", "setting": "[1]; 150 mg dose, week 12", "result": "decrease in SwCl"},
      {"measurement": "Absolute change in SwCl at Week 12: LS mean difference vs Ivacaftor", "setting": "[1]; 150 mg qd vs ivacaftor 150 mg q12h, week 12", "result": 2.4},
      {"measurement": "Absolute change in SwCl at Week 12: LS mean (SE)", "setting": "[1]; 150 mg qd, N = 23, week 12", "result": 3.3},
      {"measurement": "SwCl at week 12 compared to the ivacaftor baseline", "setting": "[1]; 250 mg dose", "result": "improvement in SwCl"},
      {"measurement": "Absolute change in SwCl at Week 12: LS mean difference vs Ivacaftor", "setting": "[1]; 250 mg qd vs ivacaftor 150 mg q12h, week 12", "result": "−7.3"},
      {"measurement": "Absolute change in SwCl at Week 12: LS mean (SE)", "setting": "[1]; 250 mg qd, N = 24, week 12", "result": "−6.5"}
    ]},
    {"smiles": "CC1(C)C[C@@H]2CCCNc3cccc(n3)S(=O)(=O)NC(=O)c3ccc(-n4ccc(OCCC5C6(CC6)C56CC6)n4)nc3N1C2", "note": "[Compound II calcium salt hydrate Form A, (14S)-8-[3-(2-{Dispiro[2.0.2.1]heptan-7-yl}ethoxy)-1H-pyrazol-1-yl]-12,12-dimethyl-2λ6-thia-3,9,11,18,23-pentaazatetracyclo[17.3.1.111,14.05,10]tetracosa-1(22),5,7,9,19(23),20-hexaene-2,2,4-trione]", "values": [
      {"measurement": "Kinetic preference among calcium salt hydrate forms", "setting": "[2]", "result": "most kinetically favored calcium salt hydrate form"},
      {"measurement": "Dissolution", "setting": "[3]", "result": "higher"},
      {"measurement": "Exposure", "setting": "[3]", "result": "higher"},
      {"measurement": "Solubility", "setting": "[3]", "result": "higher"}
    ]},
    {"smiles": "CC1(C)C[C@@H]2CCCNc3cccc(n3)S(=O)(=O)NC(=O)c3ccc(-n4ccc(OCCC5C6(CC6)C56CC6)n4)nc3N1C2", "note": "[Compound II calcium salt hydrate Form D, (14S)-8-[3-(2-{Dispiro[2.0.2.1]heptan-7-yl}ethoxy)-1H-pyrazol-1-yl]-12,12-dimethyl-2λ6-thia-3,9,11,18,23-pentaazatetracyclo[17.3.1.111,14.05,10]tetracosa-1(22),5,7,9,19(23),20-hexaene-2,2,4-trione]", "values": [
      {"measurement": "Polymorphic form stability", "setting": "[2]; in IPA/water at water activity 0.1-0.95 from ambient temperature to 60° C.", "result": "most stable polymorphic form"},
      {"measurement": "Stability among calcium salt hydrate forms", "setting": "[2]; under certain conditions, such as in mixtures of ethanol and water", "result": "most stable form of calcium salt hydrate"}
    ]}
  ]
}
